Measured values as given in patent publication US6683052B1, “Lipopeptides containing an interferon-γ fragment, and uses thereof in pharmaceutical compositions” (Institut National de la Sante et de la Recherche Medicale …, priority 1998, dated 2004).
Where a SMILES comes first, the peptide text is derived from it. The star is where a group is joined. Palmitoyl = CCCCCCCCCCCCCCCC(=O)*

How the values were obtained:
murine splenocytes = assay: Induction of class II CMH molecules (IA^b) on murine splenocytes by lipopeptide fragments (FIG. 12A); format: cell-based, 129 Sv mice; conditions: murine splenocytes, 24 hours, different concentrations
Protocol: (§1) Fresh splenocytes are obtained from 7-week-old female 129 Sv mice. The COLO 205 human colon carcinoma lines are obtained from the ATCC (American Type Culture Collection). The splenocytes and COLO 205 cells are maintained in RPMI 1640 (Gibco BRL, Courbevoie, France), supplemented with 10% FCS (Gibco BRL), sodium pyruvate (Sigma, St. Louis, USA) and incubated at 37° C. in 5% CO2.
(§2) The cells were stimulated for 24 hours with different concentrations of MuL, L-mIFNγ 113-132, L-mIFNγ 122-132 or MuSL. The murine splenocytes and COLO 205 cells were labelled for the expression of II MHC with 1 μg of anti-mouse IA^b FITC monoclonal antibody (mAb) (Pharmingen, San Diego, USA) and 10 μl of anti-HLA-DR clone TAL.1B5 mouse FITC mAb (Cymbus Biotechnology Ltd, Hants, UK), respectively. A negative control mouse FITC IgG1 (DAKO S. A., Trappes, France) was used as control isotype. The cells were incubated for 1 hour at 4° C. in PBS, 10% FCS and then washed, and the expression of II MHC was analysed by flow cytometry using a Coulter EPILS II cytometer (Coulter, Hialeah, Fla., USA) at a rate of 10,000 events per sample.
(§3) FIG. 12: Induction of class II CMH molecules by human or murine cells stimulated with lipopeptides derived from IFN-γ. The murine splenocytes (A) and the COLO 205 human cell line (B) were incubated for 24 hours with different concentrations of lipopeptides derived from IFN-γ. The cells were labelled with a monoclonal antibody directed against the class II CMH molecules, and analysed by flow cytometry. The ratio between the average fluorescence intensity of the cells treated with the lipopeptides and between the average fluorescence intensity of the untreated cells is indicated on the y-axis. The lipopeptide concentration is indicated in μM on the x-axis; MuL: solid circles; MuSL : hollow circles; L-mIFN 113-132: triangles; L-mIFN 122-132: X.

WEHI3 = assay: Induction of class II CMH molecules on WEHI3 cell line, flow cytometry; format: cell-based, murine; conditions: 50 μM, stimulated for 24 hours
Protocol: (§4) Principle: to check the induction of class II CMH molecules on cell lines (P388D1 and WEHI3: murine myelomonocytes) with the above-mentioned peptides.
(§5) Procedure. The cells are cultured the day before at a rate of 3×10^5 cells per well in 24-well culture plates (NUNC). The following day, the cells are stimulated with the various lipopeptide and peptide constructs at a final concentration of 50 μM in 1 ml of medium. After incubation for 24 hours at 37° C. in an atmosphere saturated with 5% CO2, the cells are recovered and incubated for 1 hour at 4° C. with 3 μg of a biotinylated mouse anti-I-Ad monoclonal antibody (Pharmingen, San Diego, USA). After revelation for 30 minutes with FITC streptavidin used at a dilution of 1:100 (Sigma, St. Louis, USA), the expression of class II molecules is determined by flow cytometry.

peritoneal cells = assay: Expression of class II CMH molecules and Fc-γ receptors on peritoneal cells taken from an animal; format: cell-based, Balb/c mouse; conditions: 50 μM, 24 hours, flow cytometry
Protocol: (§6) Principle: to evaluate the activity of the vectorized agonist on cells taken from an animal and treated in vitro (in order to assess the value of a subsequent in vivo study).
(§7) Procedure. The splenocytes and peritoneal cells taken from an animal (Balb/c mouse) are re-cultured at a rate of 2.5×10^6 splenocytes and […] peritoneal cells per well in 24-well plates (NUNC) stimulated with 50 μM of the different peptides in a final volume of 1 ml. After stimulation for 24 hours, the cells are labelled with the anti IA^d monoclonal antibody described in the preceding paragraph, according to the same protocol. To detect the Fc-γ R, the cells are labelled with 1 μg of a rat anti Fc-γ R monoclonal antibody (Pharmingen, San Diego, USA). Next, the cells are incubated for ½ hour with a rat anti IgG biotinylated polyclonal antibody. The revelation is then carried out with FITC streptavidin used at a dilution of 1:100 (Sigma, St. Louis, USA). The expression of Fc-γ R is determined by flow cytometry.

splenocytes = assay: Expression of class II CMH molecules and Fc-γ receptors on splenocytes taken from an animal; format: cell-based, Balb/c mouse; conditions: 50 μM, 24 hours, flow cytometry
Protocol: as §6, §7

P388D1 = assay: Induction of class II CMH molecules on P388D1 cell line, flow cytometry; format: cell-based, murine; conditions: for percentage of class II CMH detected by flow cytometry, P388D1: 50 μM, stimulated for 24 hours
Protocol: as §4, §5

[1] = Circular dichroism studies; format: physicochemical; conditions: 2 mM pH 7 phosphate buffer
Protocol: The circular dichroism measurements on the peptides were carried out at 25° C. using a Jobin-Yvon CD-6 machine at controlled temperature. The scans were carried out with a cell 0.1 cm in length in an average time of 5 sec. The wavelength interval measured ranges from 185 to 260 nm at a scanning step speed of 0.5 nm/step. The scans were carried out on the peptides at neutral pH in a 2 mM phosphate buffer with or without the helix-stabilizing reagent trifluoroethanol (TFE). The peptide concentration was adjusted to a concentration of 20 μM, after determination of the exact amount of a 100 μM solution by quantitative amino acid analysis. The average values of 4 repeat scans were expressed as average molar ellipticity per residue (deg. cm^2 dmol.).

[2] = test system: splenocytes taken from mice 129 (Wild type: WT); assay: Involvement of the IFN-γ receptor: IA^d and Fc-γ R on splenocytes of wild type mice 129; format: cell-based; conditions: stimulation for 24 hours, flow cytometry
Protocol: as §7
(§8) Principle. to confirm that the biological activity observed was effectively associated with a stimulation of the IFN-γ receptor, we repeated the same experiments, in parallel on splenocytes taken from mice 129 (Wild type: WT) and on cells taken from mice 129 no longer expressing the alpha chain of the IFN-γ receptor (KO mice).
(§9) Procedure. The experimental protocol followed is identical to that described in paragraph 2 above.

[3] = test system: cells taken from mice 129 no longer expressing the alpha chain of the IFN-γ receptor (KO mice); assay: Involvement of the IFN-γ receptor: IA^d and Fc-γ R on cells of mice lacking the alpha chain of the IFN-γ receptor; format: cell-based; conditions: stimulation for 24 hours, flow cytometry
Protocol: as §7, §8, §9

[4] = test system: human colon carcinoma cells (COLO 205); assay: Induction of HLA-DR on COLO 205 cell line, flow cytometry; format: cell-based; conditions: COLO 205, 50 μM
Protocol: Principle: human colon carcinoma cells (COLO 205) are analysed for their ability to express HLA-DR after having been stimulated with the various peptide constructs.
Procedure. The cell line COLO 205 is cultured at a rate of 3×10^5 cells per well in a 24-well culture plate (NUNC). The following day, the cells are stimulated with the various peptide constructs at a final concentration of 50 μM in 1 ml of medium, and are incubated at 37° C. for 24 hours. The cells are then recovered and labelled using 3 μg of an anti HLA-DR mouse biotinylated monoclonal antibody (clone L243). After revelation with FITC streptavidin, the cells are analysed by flow cytometry.

COLO 205 human cell line = assay: Induction of HLA-DR on COLO 205 cells by lipopeptide fragments (FIG. 12B); format: cell-based; conditions: COLO 205, 24 hours, different concentrations
Protocol: as §1, §2, §3

[5] = test system: murine splenocytes and COLO 205 cells; assay: Cytotoxicity at high lipopeptide concentrations; format: cell-based

Row | Compound | increase in class II CMH molecules (FIG. 12A) (murine splenocytes) | percentage of class II CMH detected by flow cytometry, WEH1 (WEHI3) [%] | peritoneal cells II CMH (%) (peritoneal cells) | peritoneal cells RFc (%) (peritoneal cells) | splenocytes II CMH (%) (splenocytes) | splenocytes RFc (%) (splenocytes) | percentage of class II CMH detected by flow cytometry, P388D1 (P388D1) [%] | helical (ordered) conformation by CD ([1]; 25% trifluoroethanol) | WT mice II CMH (%) [2] [%] | WT mice RFc (%) [2] [%] | KO mice II CMR (%) [3] [%] | KO mice RFc (%) [3] [%] | increase in class II CMH molecules (FIG. 12B) (COLO 205 human cell line) | further results
1 | Mu: non-lipid peptide: sequence delimited by the amino acids in positions 95 and 132 of the murine IFN-γ peptide sequence (AKFEVNNPQVQRQAFNELIRVVHQLLPESSLRKRKRSR; listed as Mus sp.) | inactive | 8 | 13 | 8 | 12 | 7 | 5 | 53% | 12 | 1 | 3 | 1 | inactive | helical (ordered) conformation by CD ([1]; 50% trifluoroethanol): 65%; induction of the expression of HLA-DR [4]: no activity; % HLA-DR ([4]; 24 hours, flow cytometry): 1.2%
2 | CCCCCCCCCCCCCCCC(=O)NCCCC[C@H](NC(C)=O)C(=O)N[C@@H](C)C(=O)N[C@@H](CCCCN)C(=O)N[C@@H](Cc1ccccc1)C(=O)N[C@@H](CCC(=O)O)C(=O)N[C@H](C(=O)N[C@@H](CC(N)=O)C(=O)N[C@@H](CC(N)=O)C(=O)N1CCC[C@H]1C(=O)N[C@@H](CCC(N)=O)C(=O)N[C@H](C(=O)N[C@@H](CCC(N)=O)C(=O)N[C@@H](CCCNC(=N)N)C(=O)N[C@@H](CCC(N)=O)C(=O)N[C@@H](C)C(=O)N[C@@H](Cc1ccccc1)C(=O)N[C@@H](CC(N)=O)C(=O)N[C@@H](CCC(=O)O)C(=O)N[C@@H](CC(C)C)C(=O)N[C@H](C(=O)N[C@@H](CCCNC(=N)N)C(=O)N[C@H](C(=O)N[C@H](C(=O)N[C@@H](Cc1c[nH]cn1)C(=O)N[C@@H](CCC(N)=O)C(=O)N[C@@H](CC(C)C)C(=O)N[C@@H](CC(C)C)C(=O)N1CCC[C@H]1C(=O)N[C@@H](CCC(=O)O)C(=O)N[C@@H](CO)C(=O)N[C@@H](CO)C(=O)N[C@@H](CC(C)C)C(=O)N[C@@H](CCCNC(=N)N)C(=O)N[C@@H](CCCCN)C(=O)N[C@@H](CCCNC(=N)N)C(=O)N[C@@H](CCCCN)C(=O)N[C@@H](CCCNC(=N)N)C(=O)N[C@@H](CO)C(=O)N[C@@H](CCCNC(=N)N)C(N)=O)C(C)C)C(C)C)[C@@H](C)CC)C(C)C)C(C)C [MuL] (Ac-K(Palmitoyl)AKFEVNNPQVQRQAFNELIRVVHQLLPESSLRKRKRSR-NH2) |  |  |  |  |  |  |  |  |  |  |  |  |  | cytotoxicity [5]: cytotoxic
3 | recombinant IFN-γ: recombinant interferon-gamma cytokine used as reference |  |  |  |  |  |  |  |  |  |  |  |  |  | stimulation time at which induction of class II CMH molecules is at a maximum (P388D1; cell lines of Table 8): 48 h
4 | L-mIFN-γ 122-132: fragment 122-132 of murine IFNγ, carboxamide end, N-terminal Ac-K(Pam) group (Ac-K(Palmitoyl)ESSLRKRKRSR-NH2; SMILES CCCCCCCCCCCCCCCC(=O)NCCCC[C@H](NC(C)=O)C(=O)N[C@@H](CCC(=O)O)C(=O)N[C@@H](CO)C(=O)N[C@@H](CO)C(=O)N[C@@H](CC(C)C)C(=O)N[C@@H](CCCNC(=N)N)C(=O)N[C@@H](CCCCN)C(=O)N[C@@H](CCCNC(=N)N)C(=O)N[C@@H](CCCCN)C(=O)N[C@@H](CCCNC(=N)N)C(=O)N[C@@H](CO)C(=O)N[C@@H](CCCNC(=N)N)C(N)=O) | neither L-mIFN-γ 122-132 nor MuSL are active |  |  |  |  |  |  | 50-60% |  |  |  |  | neither L-mIFN-γ 122-132 nor MuSL are active | 
5 | MuS: non-lipid scrambled analogue of the Mu peptide (PSRENQNAVKIQKLSVVLRREQKHRVERLAFRNQSLPF) |  | 5 | 6 | 8 | 9 | 8 | 14 |  | 3 | 1 | 3 | 1 |  | 
